Key:
Conditions in all cases: Compound concentration 1000.0 nM
[1] = target: Phosphatidylinositol 5-phosphate 4-kinase type-2 beta (Homo sapiens) (UniProt P78356)
[2] = target: T1, Dual specificity mitogen-activated protein kinase kinase 7 (Homo sapiens) (UniProt O14733)
T1 sequence (whole entry): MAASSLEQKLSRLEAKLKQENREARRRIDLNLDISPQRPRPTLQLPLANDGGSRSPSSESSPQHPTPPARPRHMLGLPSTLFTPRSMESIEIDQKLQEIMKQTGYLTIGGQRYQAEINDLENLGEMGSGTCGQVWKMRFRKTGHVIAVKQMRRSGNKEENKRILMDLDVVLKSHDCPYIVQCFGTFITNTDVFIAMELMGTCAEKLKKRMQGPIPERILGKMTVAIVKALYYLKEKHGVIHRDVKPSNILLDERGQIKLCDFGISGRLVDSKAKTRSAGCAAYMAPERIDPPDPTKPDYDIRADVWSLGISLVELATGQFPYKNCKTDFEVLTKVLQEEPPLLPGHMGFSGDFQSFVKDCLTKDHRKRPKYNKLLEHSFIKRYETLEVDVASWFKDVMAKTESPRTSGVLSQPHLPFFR

[3] = target: Serine/threonine-protein kinase DCLK2 (Homo sapiens) (UniProt Q8N568)
Serine/threonine-protein kinase DCLK2 (Homo sapiens), sequence (Q8N568 whole entry, the tested form may be a part): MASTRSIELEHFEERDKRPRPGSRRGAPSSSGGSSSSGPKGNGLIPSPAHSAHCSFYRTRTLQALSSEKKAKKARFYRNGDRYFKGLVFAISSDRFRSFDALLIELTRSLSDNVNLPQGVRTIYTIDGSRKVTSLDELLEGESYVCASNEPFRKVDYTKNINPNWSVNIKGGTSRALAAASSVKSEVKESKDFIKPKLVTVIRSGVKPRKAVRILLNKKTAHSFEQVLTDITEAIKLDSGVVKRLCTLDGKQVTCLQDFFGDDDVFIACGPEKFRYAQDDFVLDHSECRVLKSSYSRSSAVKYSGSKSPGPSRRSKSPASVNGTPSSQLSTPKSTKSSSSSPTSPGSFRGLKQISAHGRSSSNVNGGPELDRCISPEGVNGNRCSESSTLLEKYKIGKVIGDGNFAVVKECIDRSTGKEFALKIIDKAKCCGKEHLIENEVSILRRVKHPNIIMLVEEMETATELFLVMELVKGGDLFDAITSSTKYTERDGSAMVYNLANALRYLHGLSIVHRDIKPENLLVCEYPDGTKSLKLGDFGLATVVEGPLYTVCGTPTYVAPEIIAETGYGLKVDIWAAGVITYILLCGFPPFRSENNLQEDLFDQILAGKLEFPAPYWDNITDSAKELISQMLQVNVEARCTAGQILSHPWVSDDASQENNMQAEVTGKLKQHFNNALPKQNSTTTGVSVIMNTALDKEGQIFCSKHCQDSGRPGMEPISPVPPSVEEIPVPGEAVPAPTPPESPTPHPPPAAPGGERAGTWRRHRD

[4] = target: T2, Discoidin domain-containing receptor 2 (Homo sapiens) (UniProt Q16832)
T2 sequence (whole entry): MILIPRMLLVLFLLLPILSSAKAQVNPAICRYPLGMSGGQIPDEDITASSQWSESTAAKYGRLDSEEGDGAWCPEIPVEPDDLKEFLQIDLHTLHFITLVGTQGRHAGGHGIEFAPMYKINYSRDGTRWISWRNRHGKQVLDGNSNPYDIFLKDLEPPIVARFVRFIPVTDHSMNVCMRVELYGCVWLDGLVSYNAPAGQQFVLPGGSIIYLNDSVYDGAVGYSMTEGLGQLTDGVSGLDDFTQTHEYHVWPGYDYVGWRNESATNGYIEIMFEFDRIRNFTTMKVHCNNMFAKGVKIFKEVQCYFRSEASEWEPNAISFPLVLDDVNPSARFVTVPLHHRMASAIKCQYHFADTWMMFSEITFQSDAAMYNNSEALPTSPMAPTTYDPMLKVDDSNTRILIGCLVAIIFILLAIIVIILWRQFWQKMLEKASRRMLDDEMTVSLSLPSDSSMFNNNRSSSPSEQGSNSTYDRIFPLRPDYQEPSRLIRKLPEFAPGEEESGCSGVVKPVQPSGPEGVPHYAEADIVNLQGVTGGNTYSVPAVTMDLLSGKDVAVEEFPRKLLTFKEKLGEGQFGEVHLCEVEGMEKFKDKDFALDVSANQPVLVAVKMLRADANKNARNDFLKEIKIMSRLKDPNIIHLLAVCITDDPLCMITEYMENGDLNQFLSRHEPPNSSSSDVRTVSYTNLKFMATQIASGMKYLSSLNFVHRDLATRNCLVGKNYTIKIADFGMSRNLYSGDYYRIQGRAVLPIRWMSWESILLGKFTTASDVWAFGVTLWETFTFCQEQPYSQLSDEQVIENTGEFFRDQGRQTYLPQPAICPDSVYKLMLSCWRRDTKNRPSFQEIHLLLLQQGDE

[5] = target: T3, Serine/threonine-protein kinase 17B (Homo sapiens) (UniProt O94768)
T3 sequence (whole entry): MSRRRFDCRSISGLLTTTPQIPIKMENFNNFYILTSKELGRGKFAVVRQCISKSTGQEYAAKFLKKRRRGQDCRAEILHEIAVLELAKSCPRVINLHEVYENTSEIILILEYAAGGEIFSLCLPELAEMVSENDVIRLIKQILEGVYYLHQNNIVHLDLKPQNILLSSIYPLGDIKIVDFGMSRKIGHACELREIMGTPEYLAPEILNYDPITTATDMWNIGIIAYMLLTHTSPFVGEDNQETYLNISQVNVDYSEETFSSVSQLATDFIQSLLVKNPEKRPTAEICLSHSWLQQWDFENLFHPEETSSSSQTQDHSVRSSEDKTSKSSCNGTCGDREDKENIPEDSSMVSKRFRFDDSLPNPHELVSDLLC

[6] = target: Tyrosine-protein kinase JAK1 (Homo sapiens) (UniProt P23458)
Tyrosine-protein kinase JAK1 (Homo sapiens), sequence (P23458 whole entry): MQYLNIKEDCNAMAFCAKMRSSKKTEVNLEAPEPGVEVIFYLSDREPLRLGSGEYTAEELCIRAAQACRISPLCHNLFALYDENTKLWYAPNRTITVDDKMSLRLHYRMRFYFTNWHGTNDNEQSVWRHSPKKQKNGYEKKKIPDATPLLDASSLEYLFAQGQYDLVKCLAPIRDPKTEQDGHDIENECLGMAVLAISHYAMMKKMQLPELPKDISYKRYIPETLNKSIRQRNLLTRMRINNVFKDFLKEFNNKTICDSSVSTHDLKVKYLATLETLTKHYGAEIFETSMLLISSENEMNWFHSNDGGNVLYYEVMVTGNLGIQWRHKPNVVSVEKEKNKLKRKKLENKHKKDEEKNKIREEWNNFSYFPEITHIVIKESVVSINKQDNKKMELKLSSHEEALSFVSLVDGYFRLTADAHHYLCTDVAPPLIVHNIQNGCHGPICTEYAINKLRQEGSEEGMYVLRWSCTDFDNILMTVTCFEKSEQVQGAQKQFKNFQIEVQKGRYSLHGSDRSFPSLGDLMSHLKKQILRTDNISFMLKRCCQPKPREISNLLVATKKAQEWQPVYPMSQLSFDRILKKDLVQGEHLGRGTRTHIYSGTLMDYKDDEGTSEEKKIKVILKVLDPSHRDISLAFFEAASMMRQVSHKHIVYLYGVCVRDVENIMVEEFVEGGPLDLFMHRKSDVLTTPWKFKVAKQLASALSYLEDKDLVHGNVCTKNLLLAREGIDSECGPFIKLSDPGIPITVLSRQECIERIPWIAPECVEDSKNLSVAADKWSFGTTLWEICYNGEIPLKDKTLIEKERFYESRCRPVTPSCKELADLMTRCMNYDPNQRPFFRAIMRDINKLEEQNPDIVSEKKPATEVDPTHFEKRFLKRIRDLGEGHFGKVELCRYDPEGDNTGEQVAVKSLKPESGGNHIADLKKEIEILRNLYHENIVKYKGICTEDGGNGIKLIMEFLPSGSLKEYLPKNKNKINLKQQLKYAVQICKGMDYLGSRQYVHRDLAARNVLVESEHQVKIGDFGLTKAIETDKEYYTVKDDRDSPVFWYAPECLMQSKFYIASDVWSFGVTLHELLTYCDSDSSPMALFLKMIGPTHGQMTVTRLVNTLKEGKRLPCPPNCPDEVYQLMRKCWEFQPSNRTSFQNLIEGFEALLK

[7] = target: ALK tyrosine kinase receptor (Homo sapiens) (UniProt Q9UM73)
ALK tyrosine kinase receptor (Homo sapiens), sequence (Q9UM73 19-1620 limits assumed): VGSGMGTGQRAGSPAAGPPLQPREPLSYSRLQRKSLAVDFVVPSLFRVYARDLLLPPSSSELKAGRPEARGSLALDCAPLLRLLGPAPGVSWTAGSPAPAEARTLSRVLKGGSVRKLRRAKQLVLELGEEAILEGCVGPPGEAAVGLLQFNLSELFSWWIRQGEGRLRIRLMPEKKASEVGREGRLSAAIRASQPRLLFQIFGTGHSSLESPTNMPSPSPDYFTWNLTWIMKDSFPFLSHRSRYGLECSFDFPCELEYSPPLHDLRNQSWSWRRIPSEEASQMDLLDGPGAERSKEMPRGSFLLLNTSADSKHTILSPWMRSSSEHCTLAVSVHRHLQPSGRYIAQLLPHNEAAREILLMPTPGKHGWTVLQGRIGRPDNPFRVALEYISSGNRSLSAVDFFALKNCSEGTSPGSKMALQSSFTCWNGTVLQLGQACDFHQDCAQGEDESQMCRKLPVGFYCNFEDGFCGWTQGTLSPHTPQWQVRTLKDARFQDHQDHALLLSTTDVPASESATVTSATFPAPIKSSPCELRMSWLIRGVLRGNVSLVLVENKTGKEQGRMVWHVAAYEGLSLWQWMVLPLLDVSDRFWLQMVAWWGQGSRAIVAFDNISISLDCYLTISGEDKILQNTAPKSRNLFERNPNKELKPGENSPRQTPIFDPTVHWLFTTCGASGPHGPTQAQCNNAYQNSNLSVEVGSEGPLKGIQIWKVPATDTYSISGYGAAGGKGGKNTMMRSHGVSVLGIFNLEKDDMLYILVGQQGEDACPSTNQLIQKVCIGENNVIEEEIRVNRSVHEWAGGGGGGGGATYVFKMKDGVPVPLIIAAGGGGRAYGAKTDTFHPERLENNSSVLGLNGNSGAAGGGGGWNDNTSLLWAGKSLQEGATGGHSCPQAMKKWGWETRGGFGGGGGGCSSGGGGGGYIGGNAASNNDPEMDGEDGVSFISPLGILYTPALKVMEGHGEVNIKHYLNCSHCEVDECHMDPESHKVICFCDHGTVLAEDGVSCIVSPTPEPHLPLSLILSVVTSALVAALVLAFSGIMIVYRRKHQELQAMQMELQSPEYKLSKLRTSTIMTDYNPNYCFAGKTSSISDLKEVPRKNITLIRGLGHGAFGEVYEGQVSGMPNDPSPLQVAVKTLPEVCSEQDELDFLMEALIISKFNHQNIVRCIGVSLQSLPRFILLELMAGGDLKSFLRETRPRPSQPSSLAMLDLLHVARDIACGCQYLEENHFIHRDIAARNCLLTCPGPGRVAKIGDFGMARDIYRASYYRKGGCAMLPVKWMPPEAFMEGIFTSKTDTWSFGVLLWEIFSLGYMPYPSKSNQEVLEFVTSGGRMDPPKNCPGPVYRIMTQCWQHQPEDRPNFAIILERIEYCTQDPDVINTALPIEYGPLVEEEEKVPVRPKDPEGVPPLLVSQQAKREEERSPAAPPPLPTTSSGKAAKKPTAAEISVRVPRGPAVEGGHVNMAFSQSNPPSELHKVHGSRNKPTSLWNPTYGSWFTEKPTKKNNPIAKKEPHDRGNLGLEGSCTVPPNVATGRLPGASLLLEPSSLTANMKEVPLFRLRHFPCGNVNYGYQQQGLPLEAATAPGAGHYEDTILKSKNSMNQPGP

[8] = target: T4, Mitogen-activated protein kinase kinase kinase kinase 3 (Homo sapiens) (UniProt Q8IVH8)
T4 sequence (whole entry): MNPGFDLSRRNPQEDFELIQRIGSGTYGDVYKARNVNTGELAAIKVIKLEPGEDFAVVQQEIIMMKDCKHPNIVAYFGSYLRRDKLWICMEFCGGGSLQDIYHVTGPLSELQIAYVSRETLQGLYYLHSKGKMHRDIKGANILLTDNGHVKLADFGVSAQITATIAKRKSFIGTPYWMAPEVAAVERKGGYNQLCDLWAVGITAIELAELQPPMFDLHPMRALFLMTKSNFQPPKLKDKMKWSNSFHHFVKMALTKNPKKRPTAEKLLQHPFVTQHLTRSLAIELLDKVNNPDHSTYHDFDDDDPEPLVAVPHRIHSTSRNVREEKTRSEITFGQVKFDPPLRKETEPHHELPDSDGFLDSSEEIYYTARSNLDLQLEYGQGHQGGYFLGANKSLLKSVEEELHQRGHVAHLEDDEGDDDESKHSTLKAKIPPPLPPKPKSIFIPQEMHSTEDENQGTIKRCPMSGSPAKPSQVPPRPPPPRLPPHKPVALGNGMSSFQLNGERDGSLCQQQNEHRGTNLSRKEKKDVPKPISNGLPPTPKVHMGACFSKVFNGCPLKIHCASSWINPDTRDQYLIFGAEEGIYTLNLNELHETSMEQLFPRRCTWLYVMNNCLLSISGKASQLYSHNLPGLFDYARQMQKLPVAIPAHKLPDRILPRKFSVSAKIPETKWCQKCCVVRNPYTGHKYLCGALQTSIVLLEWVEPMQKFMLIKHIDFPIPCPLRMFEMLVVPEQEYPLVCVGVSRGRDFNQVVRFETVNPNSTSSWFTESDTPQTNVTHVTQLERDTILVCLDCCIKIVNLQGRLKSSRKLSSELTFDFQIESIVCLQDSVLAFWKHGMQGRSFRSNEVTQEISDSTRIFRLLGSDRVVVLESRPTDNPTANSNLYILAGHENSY

Measured: residual activity

Phosphatidylinositol 5-phosphate 4-kinase type-2 beta (Homo sapiens), sequence (P78356 whole entry): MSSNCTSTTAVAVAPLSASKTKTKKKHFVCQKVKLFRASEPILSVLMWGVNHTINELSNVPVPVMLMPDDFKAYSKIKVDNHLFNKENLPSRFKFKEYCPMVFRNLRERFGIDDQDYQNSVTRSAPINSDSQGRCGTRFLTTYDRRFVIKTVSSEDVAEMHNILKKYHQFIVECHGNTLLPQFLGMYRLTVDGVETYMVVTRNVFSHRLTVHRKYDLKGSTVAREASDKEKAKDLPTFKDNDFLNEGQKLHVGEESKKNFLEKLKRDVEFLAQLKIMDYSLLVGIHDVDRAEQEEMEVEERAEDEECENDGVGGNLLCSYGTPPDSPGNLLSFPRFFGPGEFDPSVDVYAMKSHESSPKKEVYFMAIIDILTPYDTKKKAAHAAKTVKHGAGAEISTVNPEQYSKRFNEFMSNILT

CCc1ccccc1C(=O)Nc1n[nH]c2c(C)c(F)c(C3C(C#N)=C(C)N(C)C(C)=C3C#N)cc12 [BAY-3827]
inactive: [1] 91% | [2] 100% | [3] 64% | [4] 100% | [5] 100% | [6] 97% | [7] 98% | [8] 100%

CC1=C(C#N)C(c2ccc3c(c2)c(NC(=O)c2ccccc2C)nn3C)C(C#N)=C(C)N1 [BAY-974]
inactive: [1] 83% | [2] 65% | [3] 100% | [4] 86% | [5] 88% | [6] 100% | [7] 100% | [8] 80%

— ChEMBL document CHEMBL4507319 (2021)
